According to patent US10316035B2, “Triazolopyridine inhibitors of myeloperoxidase” (BRISTOL-MYERS SQUIBB COMPANY, priority 2015, dated 2019):
Where a name gives a salt, the structure may show the parent alone.

target: T1, myeloperoxidase (MPO) (Homo sapiens, UniProt P05164); assay: MPO peroxidation assay (Amplex Red assay); format: biochemical; conditions: not given
T1 sequence (P05164 49-745): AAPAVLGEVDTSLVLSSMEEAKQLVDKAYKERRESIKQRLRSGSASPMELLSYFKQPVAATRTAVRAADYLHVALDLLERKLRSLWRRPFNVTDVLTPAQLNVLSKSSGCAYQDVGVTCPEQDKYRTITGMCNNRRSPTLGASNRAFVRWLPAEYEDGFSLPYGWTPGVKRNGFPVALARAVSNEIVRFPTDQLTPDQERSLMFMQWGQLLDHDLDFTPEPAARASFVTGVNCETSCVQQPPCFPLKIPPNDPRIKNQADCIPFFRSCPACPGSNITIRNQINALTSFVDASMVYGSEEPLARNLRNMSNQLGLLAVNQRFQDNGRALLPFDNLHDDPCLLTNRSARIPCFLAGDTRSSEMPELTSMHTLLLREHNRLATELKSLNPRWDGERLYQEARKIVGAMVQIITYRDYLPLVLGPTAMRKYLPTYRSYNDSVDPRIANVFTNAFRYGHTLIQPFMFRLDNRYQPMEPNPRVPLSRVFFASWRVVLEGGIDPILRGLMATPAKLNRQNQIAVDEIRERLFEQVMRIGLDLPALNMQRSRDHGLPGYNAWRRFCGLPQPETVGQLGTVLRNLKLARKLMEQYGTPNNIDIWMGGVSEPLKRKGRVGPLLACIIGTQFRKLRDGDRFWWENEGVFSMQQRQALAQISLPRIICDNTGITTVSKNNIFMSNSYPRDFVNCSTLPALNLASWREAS
Summary of the method: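 MPO (200 pM) with 40 nM H2O2 was preincubated 10 min at room temperature with inhibitor in 100 mM KPi pH 7.4. A mix of Amplex Red (200 μM) and H2O2 (10 mM) was then added and resorufin fluorescence read kinetically for 15 min. Slopes over 180–540 s gave % inhibition and IC50 via a four-parameter Hill fit.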

| IC50 [nM] | Compound |
| --- | --- |
| 1 to 100 | Cn1cc(-c2cccc(COc3cc(N)nc4[nH]nnc34)c2)cn1 [Example 77, 7-(3-(1-Methyl-1H-pyrazol-4-yl)benzyloxy)-3H-[1,2,3]triazolo[4,5-b]pyridin-5-amine] |

same assay, conditions: MPO peroxidation, potency range class; read-out: Amplex Red IC50

| IC50 [nM] | Compound |
| --- | --- |
| 1 to 100 | Nc1cc(OCc2ccc(C(=O)NCc3ccccc3)cc2Cl)c2nn[nH]c2n1 [Example 196, 4-((5-amino-3H-[1,2,3]triazolo[4,5-b]pyridin-7-yloxy)methyl)-N-benzyl-3-chlorobenzamide] |
| 101 to 999 | Nc1cc(OCc2ccc(C(=O)NCC3CCCCC3)cc2Cl)c2nn[nH]c2n1 [Example 198, 4-((5-amino-3H-[1,2,3]triazolo[4,5-b]pyridin-7-yloxy)methyl)-3-chloro-N-(cyclohexylmethyl)benzamide] |
| 1 to 100 | Cc1c(COc2cc(N)nc3[nH]nnc23)cccc1-c1cncc(F)c1 [Example 63, 7-(3-(5-Fluoropyridin-3-yl)-2-methylbenzyloxy)-3H-[1,2,3]triazolo[4,5-b]pyridin-5-amine] |
| 101 to 999 | Nc1cc(OCC2CCc3ccccc3C2)c2nn[nH]c2n1 (stereo not shown) [Example 51, 7-((1,2,3,4-Tetrahydronaphthalen-2-yl)methoxy)-3H-[1,2,3]triazolo[4,5-b]pyridin-5-amine] |
| 101 to 999 | Nc1cc(OCc2ccccc2OCC(=O)NCC2CC2)c2nn[nH]c2n1 [Example 37, 2-(2-((5-Amino-3H-[1,2,3]triazolo[4,5-b]pyridin-7-yloxy)methyl)phenoxy)-N-(cyclopropylmethyl)acetamide] |
| 1 to 100 | Nc1cc(OCc2cc(Cl)ccc2C(F)(F)F)c2nn[nH]c2n1 [Example 241, 7-((5-Chloro-2-(trifluoromethyl)benzyl)oxy)-3H-[1,2,3]triazolo[4,5-b]pyridin-5-amine] |
| 1 to 100 | CN(C)c1ncc(-c2ccc(COc3cc(N)nc4[nH]nnc34)c(C#N)c2)cn1 [Example 317, 2-(((5-amino-3H-[1,2,3]triazolo[4,5-b]pyridin-7-yl)oxy)methyl)-5-(2-(dimethylamino)pyrimidin-5-yl)benzonitrile] |
| 1 to 100 | COc1cccc(Cl)c1-c1ccc(COc2cc(N)nc3[nH]nnc23)cc1 [Example 118, 7-((2′-Chloro-6′-methoxybiphenyl-4-yl)methoxy)-3H-[1,2,3]triazolo[4,5-b]pyridin-5-amine] |
| 101 to 999 | CC(Oc1cc(N)nc2[nH]nnc12)c1cccc(OC(F)(F)F)c1 (stereo not shown) [Example 143, 7-(1-(3-(Trifluoromethoxy)phenyl)ethoxy)-3H-[1,2,3]triazolo[4,5-b]pyridin-5-amine] |
| 101 to 999 | CC1CC(c2ccccc2)CCC1COc1cc(N)nc2[nH]nnc12 (stereo not shown) [Example 53, 7-((2-Methyl-4-phenylcyclohexyl)methoxy)-3H-[1,2,3]triazolo[4,5-b]pyridin-5-amine] |
| 1 to 100 | CS(=O)(=O)c1cccc(Cl)c1COc1cc(N)nc2[nH]nnc12 [Example 225, 7-(2-Chloro-6-(methylsulfonyl)benzyloxy)-3H-[1,2,3]triazolo[4,5-b]pyridin-5-amine] |
| 1000 to 10000 | COc1ccc(-n2cnc(C)n2)cc1COc1cc(N)nc2[nH]nnc12 [Example 87, 7-(2-Methoxy-5-(3-methyl-1H-1,2,4-triazol-1-yl)benzyloxy)-3H-[1,2,3]triazolo[4,5-b]pyridin-5-amine] |
| 101 to 999 | CCN(C)C(=O)c1ccc(-c2ccc(COc3cc(N)nc4[nH]nnc34)cc2)cc1F [Example 107, 4′-((5-Amino-3H-[1,2,3]triazolo[4,5-b]pyridin-7-yloxy)methyl)-N-ethyl-3-fluoro-N-methylbiphenyl-4-carboxamide] |
| 1 to 100 | Nc1cc(OCc2cccc(SC(F)(F)F)c2)c2nn[nH]c2n1 [Example 248, 7-((3-((trifluoromethyl)thio)benzyl)oxy)-3H-[1,2,3]triazolo[4,5-b]pyridin-5-amine] |
| 1 to 100 | COc1ccc(Br)cc1COc1cc(N)nc2[nH]nnc12 [Example 58, 7-(5-Bromo-2-methoxybenzyloxy)-3H-[1,2,3]triazolo[4,5-b]pyridin-5-amine] |
| 1 to 100 | Nc1cc(OCc2ccc(C(=O)NCCc3c[nH]cn3)cc2Cl)c2nn[nH]c2n1 [Example 224, N-(2-(1H-imidazol-4-yl)ethyl)-4-((5-amino-3H-[1,2,3]triazol[4,5-b]pyridin-7-yloxy)methyl)-3-chlorobenzamide] |
| 1 to 100 | Nc1cc(OCc2ccc(C(=O)N3CCCC(Oc4ccccc4)C3)cc2Cl)c2nn[nH]c2n1 (stereo not shown) [Example 209] |
| 101 to 999 | COc1ccc(-c2ccc(COc3cc(N)nc4[nH]nnc34)cc2)cc1F [Example 108, 7-((3′-Fluoro-4′-methoxybiphenyl-4-yl)methoxy)-3H-[1,2,3]triazolo[4,5-b]pyridin-5-amine] |

| IC50 [nM] | Compound |
| --- | --- |
| 1 to 100 | Nc1ccc(-c2ccc(COc3cc(N)nc4[nH]nnc34)c(OC(F)(F)F)c2)cn1 [Example 291, 7-((4-(6-aminopyridin-3-yl)-2-(trifluoromethoxy)benzyl)oxy)-3H-[1,2,3]triazolo[4,5-b] pyridin-5-amine] |
| 1 to 100 | Nc1cc(OCc2ccccc2OC(F)F)c2nn[nH]c2n1 [Example 238, 7-((2-(Difluoromethoxy)benzyl)oxy)-3H-[1,2,3]triazolo[4,5-b]pyridin-5-amine] |
| 101 to 999 | COc1c(F)cc(F)cc1-c1ccc(COc2cc(N)nc3[nH]nnc23)cc1 [Example 117, 7-((3′,5′-Difluoro-2′-methoxybiphenyl-4-yl)methoxy)-3H-[1,2,3]triazolo[4,5-b]pyridin-5-amine] |
| 1 to 100 | Nc1cc(OCc2cccc(F)c2F)c2nn[nH]c2n1 [Example 129, 7-((2,3-Difluorobenzyl)oxy)-3H-[1,2,3]triazolo[4,5-b]pyridin-5-amine] |
| 101 to 999 | Nc1cc(OCc2cc(Cl)ccc2S(=O)(=O)Cc2ccccc2)c2nn[nH]c2n1 [Example 228, 7-((2-(Benzylsulfonyl)-5-chlorobenzyl)oxy)-3H-[1,2,3]triazolo[4,5-b]pyridin-5-amine, TFA] |
| 1000 to 10000 | Nc1cc(OCc2ccc(-c3cccc(Cl)c3)cc2)c2nn[nH]c2n1 [Example 111, 7-((3′-Chlorobiphenyl-4-yl)methoxy)-3H-[1,2,3]triazolo[4,5-b]pyridin-5-amine] |
| 101 to 999 | CN(C)C(=O)c1ccc(Cl)c(COc2cc(N)nc3[nH]nnc23)c1 [Example 185, 3-((5-amino-3H-[1,2,3]triazolo [4,5-b]pyridin-7-yloxy)methyl)-4-chloro-N,N-dimethylbenzamide] |
| 1 to 100 | COc1cccc(-c2cccc(COc3cc(N)nc4[nH]nnc34)c2)c1 [Example 113, 7-((3′-Methoxybiphenyl-3-yl)methoxy)-3H-[1,2,3]triazolo[4,5-b]pyridin-5-amine] |
| 101 to 999 | COc1cccc(COc2cc(N)nc3[nH]nnc23)c1 [Example 127, 7-((3-Methoxybenzyl)oxy)-3H-[1,2,3]triazolo[4,5-b]pyridin-5-amine] |
| 1 to 100 | Nc1cc(OCc2cccc(-c3ccccc3Cl)c2)c2nn[nH]c2n1 [Example 93, 7-((2′-Chlorobiphenyl-3-yl)methoxy)-3H-[1,2,3]triazolo[4,5-b]pyridin-5-amine] |
| 101 to 999 | COc1ccc(-c2cccc(COc3cc(N)nc4[nH]nnc34)c2)c(F)c1 [Example 64, 7-((2′-Fluoro-4′-methoxybiphenyl-3-yl)methoxy)-3H-[1,2,3]triazolo[4,5-b]pyridin-5-amine] |
| 101 to 999 | CN1CCC(N(C)C(=O)c2ccc(F)c(COc3cc(N)nc4[nH]nnc34)c2)C1 (stereo not shown) [Example 164] |
| 101 to 999 | Nc1cc(OCc2ccccc2S(N)(=O)=O)c2nn[nH]c2n1 [Example 230, 2-(((5-Amino-3H-[1,2,3]triazolo[4,5-b]pyridin-7-yl)oxy)methyl)benzenesulfonamide, TFA] |
| 1 to 100 | Nc1cc(OCc2cccc(Br)c2F)c2nn[nH]c2n1 [Example 62, 7-(3-Bromo-2-fluorobenzyloxy)-3H-[1,2,3]triazolo[4,5-b]pyridin-5-amine] |
| 1 to 100 | Nc1cc(OCc2cc(C(=O)NC3CC3)ccc2Cl)c2nn[nH]c2n1 [Example 188, 3-((5-amino-3H-[1,2,3]triazolo [4,5-b]pyridin-7-yloxy)methyl)-4-chloro-N-cyclopropylbenzamide] |
| 1 to 100 | N#Cc1ccccc1COc1cc(N)nc2[nH]nnc12 [Example 247, 2-(((5-amino-3H-[1,2,3]triazolo[4,5-b]pyridin-7-yl)oxy)methyl)benzonitrile] |
| 1 to 100 | Nc1cc(OCC2CCC(c3ccccc3)CC2)c2nn[nH]c2n1 (stereo not shown) [Example 90, 7-((4-Phenylcyclohexyl)methoxy)-3H-[1,2,3]triazolo[4,5-b]pyridin-5-amine] |
| 101 to 999 | CS(=O)(=O)c1cncc(-c2ccc(COc3cc(N)nc4[nH]nnc34)c(OC(F)(F)F)c2)c1 [Example 294, 7-((4-(5-(methylsulfonyl)pyridin-3-yl)-2-(trifluoromethoxy)benzyl)oxy)-3H-[1,2,3] triazolo[4,5-b]pyridin-5-amine] |
